From the NIST ThermoML archive (doi:10.1021/acs.jced.5b00597)
Where “and” joins values, the source holds several entries; their conditions need not be identical. Identical values can stand only once.

Assay: molar heat capacity at constant pressure
Conditions: Liquid, Flow calorimetry

FC(F)CC(F)(F)F [1,1,1,3,3-pentafluoropropane]
Conditions | molar heat capacity at constant pressure
277.89 K, 518.3 kPa | 170.11 J/K/mol
277.9 K, 519 kPa | 171.31 J/K/mol
282.87 K, 509.6 kPa | 171.72 J/K/mol
282.87 K, 511 kPa | 172.65 J/K/mol
287.9 K, 513.9 kPa | 173.46 J/K/mol
287.92 K, 512.5 kPa | 173.46 J/K/mol and 171.85 J/K/mol
292.91 K, 518.1 kPa | 179.09 J/K/mol
297.89 K, 514.6 kPa | 177.61 J/K/mol and 177.21 J/K/mol
302.89 K, 517.2 kPa | 178.42 J/K/mol
302.9 K, 518 kPa | 179.09 J/K/mol
307.87 K, 519.5 kPa | 181.23 J/K/mol
307.88 K, 504.1 kPa | 181.1 J/K/mol
307.88 K, 514.4 kPa | 182.17 J/K/mol [middle of 4 runs]
307.88 K, 808.1 kPa | 181.5 J/K/mol
307.89 K, 517.9 kPa | 182.71 J/K/mol
307.89 K, 518.2 kPa | 181.77 J/K/mol
307.89 K, 522.2 kPa | 181.63 J/K/mol
307.92 K, 415.8 kPa | 180.7 J/K/mol
307.93 K, 520.4 kPa | 182.71 J/K/mol
312.89 K, 514.5 kPa | 181.77 J/K/mol
313.89 K, 520.4 kPa | 180.96 J/K/mol
317.9 K, 522.2 kPa | 183.24 J/K/mol
317.9 K, 522.6 kPa | 181.9 J/K/mol
322.94 K, 518.4 kPa | 185.66 J/K/mol
322.95 K, 517.7 kPa | 184.85 J/K/mol and 184.58 J/K/mol
327.96 K, 806.4 kPa | 187.13 J/K/mol
327.97 K, 808.9 kPa | 185.92 J/K/mol
332.97 K, 815 kPa | 189.41 J/K/mol
332.97 K, 816.5 kPa | 187.8 J/K/mol
337.98 K, 810.3 kPa | 190.62 J/K/mol
342.96 K, 817.2 kPa | 192.22 J/K/mol
342.99 K, 813.6 kPa | 192.49 J/K/mol
